From US5340800A, “Peptide medicaments for the treatment of disease” (priority 1992, dated 1994)
No end group written: not given here.

System: polymorphonuclear leukocyte migration
Test: Chemotaxis of polymorphonuclear leukocytes (trans-well, zymosan-activated human serum)
Format: cell-based
Details: for % Inhibition of Migration (neutrophil chemotaxis): 0.5% zymosan-activated human serum
Method: The materials and methods for ascertaining the chemotactic inhibitory properties of peptides are generally known in the art, and the preferred procedure is described by Capsoni, et al., 1989, J. of Immunol. Meth., 120:125. Generally, chemotaxis is determined by positioning the leukocytes and a chemotactic substance on opposite sides of a membrane in appropriate culture media. The preferred apparatus for doing a chemotaxis assay is produced by Costar Corporation, Cambridge, Mass., and is termed the trans-well cell culture apparatus. […] If a substance is being tested for inhibitory activity this can be achieved by combining it with the leukocytes or the chemotactic substance.
The procedure of Capsoni, et al., above, was followed with the following modifications. Leukocytes may be isolated and labelled with ^111 Indium as described for the adhesion assay, above. The cells are resuspended after labelling in an appropriate cell culture medium at about 5×10^6 cells/ml. Next, a desired amount of the cell suspension is mixed with a predetermined amount of the peptide(s) to be tested for inhibitory activity, and the mixture added to an appropriate filter device. Three μm-pore membranes are situated in the wells of a 24 trans-well tissue culture plate. The cell/inhibitory peptide mixture is incubated for a short time at 37° C. to acclimate the cells to the membrane surface, and to provide sufficient time for them to settle onto the membrane surface. Next, inserts are set in wells containing cell culture media. The media contains zymosan-activated human serum at about 0.5%. Zymosan activation generates complement-derived chemotactic factors which attract the leukocytes through the pores of the membrane. This media was also prewarmed for an appropriate time prior to addition to the cell culture wells. After a 30 minute incubation period at 37° C., the number of leukocytes that have migrated through the membrane filter, in the presence or absence of CD18 peptides, is readily determined by counting the amount of ^111 Indium present in the media. This may be facilitated by adding an appropriate detergent at an appropriate concentration to the media in the wells prior to removing an aliquot for counting. In this way, the inhibitory activities of the peptide being tested could be determined.
Many of the materials and methods used to test the inhibitory activity of the CD18 peptides on the chemotactic response of the polymorphonuclear leukocytes are similar or identical to those used to perform the adhesion assays described in Example 1. Polymorphonuclear leukocytes were isolated and labelled with ^111 Indium as described before, and the cells were suspended in RPMI 1640 culture medium at a concentration of 5×10^6 /ml. Next, 75 μl of the cell suspension and 25 μl of media containing a desired concentration of a CD18 peptide were added to trans-well inserts, and the mixture was incubated at 37° C. for 10 minutes.
To the bottom wells of the 24-well plate 0.6 ml of media containing 0.5% zymosan-activated human serum was added. This solution was also warmed to 37° C. for 10 minutes prior to use.
Next, the assay was conducted by incubating the trans-well inserts containing the cell suspension with the desired CD18 peptide in the 24-well plates at 37° C. for 30 minutes. Subsequently, the inserts were removed, and 60 μl of a 10% sodium dodecyl sulphate solution was added to the wells of the 24-well plate. The plates were incubated with gentle shaking at room temperature for 15 minutes, and 110 μl aliquots were removed and the amount of ^111 Indium determined using a gamma-counter.

Sequence: IGWRNVTRLLVFATDDGFHFAGDGKLGAI [Peptide 4-29, NH2 --Ile--Gly--Trp--Arg--Asn--Val--Thr--Arg--Leu--Leu--Val--Phe--Ala--Thr--Asp--Asp--Gly--Phe--His--Phe--Ala--Gly--Asp--Gly--Lys--Leu--Gly--Ala--Ile--COOH]
- concentration of peak activity in chemotaxis inhibition (6 donors, 10^-4 -10^-7): 10^-5 M
- inhibition of chemotaxis migration (in words) (10^-4 -10^-5 M): marked inhibition
- % Inhibition of Migration (neutrophil chemotaxis) (10^-4 M, donor 140): 83%
- percent inhibition (-) or enhancement of polymorphonuclear leukocyte migration (10^-4 M, donor 195): -93%
- % Inhibition of Migration (neutrophil chemotaxis) (10^-4 M, donor 195): 76%
- % Inhibition of Migration (neutrophil chemotaxis) (10^-4 M, donor 279): 74%
- % Inhibition of Migration (neutrophil chemotaxis) (10^-4 M, donor 363): 76%
- percent inhibition (-) or enhancement of polymorphonuclear leukocyte migration (10^-4 M, donor 499): -87%
- percent inhibition (-) or enhancement of polymorphonuclear leukocyte migration (10^-4 M, donor 591): -74%
- percent inhibition (-) or enhancement of polymorphonuclear leukocyte migration (10^-4 M, donor 593): -88%
- % Inhibition of Migration (neutrophil chemotaxis) (10^-5 M, donor 140): 69%
- % Inhibition of Migration (neutrophil chemotaxis) (10^-5 M, donor 169): 75%
- percent inhibition (-) or enhancement of polymorphonuclear leukocyte migration (10^-5 M, donor 195): -93%
- % Inhibition of Migration (neutrophil chemotaxis) (10^-5 M, donor 195): 87%
- % Inhibition of Migration (neutrophil chemotaxis) (10^-5 M, donor 279): 49%
- % Inhibition of Migration (neutrophil chemotaxis) (10^-5 M, donor 359): 74%
- % Inhibition of Migration (neutrophil chemotaxis) (10^-5 M, donor 363): 79%
- percent inhibition (-) or enhancement of polymorphonuclear leukocyte migration (10^-5 M, donor 499): -79%
- percent inhibition (-) or enhancement of polymorphonuclear leukocyte migration (10^-5 M, donor 591): -88%
- percent inhibition (-) or enhancement of polymorphonuclear leukocyte migration (10^-5 M, donor 593): -88%
- % Inhibition of Migration (neutrophil chemotaxis) (10^-6 M, donor 140): 2%
- percent inhibition (-) or enhancement of polymorphonuclear leukocyte migration (10^-6 M, donor 195): 11%
- % Inhibition of Migration (neutrophil chemotaxis) (10^-6 M, donor 195): 34%
- % Inhibition of Migration (neutrophil chemotaxis) (10^-6 M, donor 279): 17%
- % Inhibition of Migration (neutrophil chemotaxis) (10^-6 M, donor 363): 34%
- percent inhibition (-) or enhancement of polymorphonuclear leukocyte migration (10^-6 M, donor 499): 0%
- percent inhibition (-) or enhancement of polymorphonuclear leukocyte migration (10^-6 M, donor 591): 0%
- percent inhibition (-) or enhancement of polymorphonuclear leukocyte migration (10^-6 M, donor 593): 4%
- % Inhibition of Migration (neutrophil chemotaxis) (10^-7 M, donor 140): 0%
- % Inhibition of Migration (neutrophil chemotaxis) (10^-7 M, donor 279): 0%
- inhibitory activity on chemotaxis (in words) (PMNs from 6 donors): significant activity being observed for all donors
